Source: patent US8513271B2, “Pyrimidine compounds as delta opioid receptor modulators” (Janssen Pharmaceutica, NV, priority 2009, dated 2013)
Where “and” joins values, the source holds several entries; their conditions need not be identical. Equal values may be shown once. Read-outs that look alike come from different tables or passages of the source.

Tests used:
[1] = target: T1, delta opioid receptor (Mus musculus, UniProt P32300); assay: [35S]GTPγS binding assay in NG108-15 cell membranes (delta opioid functional assay), 200 nM screen; format: biochemical; conditions: NG108-15 cell membranes; for GTPγS δ-RelEfficacy @200 nM: 200 nM test compound, relative to calculated max of SNC80 dose response curve; for GTPγS δ-RelEfficacy @200 nM / EC50: averages if tested more than once; for GTPγS δ-opioid receptor Rel Efficacy: relative efficacy from dose response
T1 construct: NG108-15 cell membranes were purchased from Applied Cell Sciences (Rockville, Md.); host or cells: NG108-15 cell membranes

[2] = target: hMOR (mu opioid receptor) (Homo sapiens, UniProt P35372); assay: [35S]GTPγS binding assays in CHO-hMOR cell membranes (mu opioid functional assay); format: biochemical; conditions: for inhibition at 10 µM: read-out: GTPγS μ-opioid receptor % Inh @10 μM; for GTPγS μ-opioid receptor % Inh @10 μM: inhibition of agonist-stimulated GTPγS binding
[3] = system: CFA-induced paw radiant heat hypersensitivity; assay: CFA-induced paw radiant heat hypersensitivity; format: in vivo, rat; conditions: Rattus norvegicus, po
[4] = target: T2, delta opioid receptor (Rattus norvegicus, UniProt P33533); assay: Rat brain delta opioid receptor binding assay; conditions: δ-binding (Naltrindole ligand) Ki, rat forebrain, [3H]naltrindole ligand
T2 construct: the forebrains were homogenized in Tris buffer in a Teflon®-glass homogenizer; from tissue; host or cells: forebrain of male Wistar rats, particulate (membrane) preparation

[5] = target: T3, mu opioid receptor (Rattus norvegicus, UniProt P33535); assay: Rat brain mu opioid receptor binding assay; conditions: rat forebrain, [3H]DAMGO ligand
T3 construct: the forebrains were homogenized in Tris buffer in a Teflon®-glass homogenizer; from tissue; host or cells: forebrain of male Wistar rats, particulate (membrane) preparation

[6] = target: T1, delta opioid receptor; assay: NG108-15, 24-well delta opioid receptor binding assay
[7] = GTPγS δ-opioid receptor EC50 (μM)
[8] = 1 h, read-out: maximum % reversal @ time (min), rat, 30 mg/kg p.o., 0.5% HPMC, @ 60 min
[9] = read-out: GTPγS δ-opioid receptor EC50
[10] = CHO-hMOR cell membranes, read-out: GTPγS μ-opioid receptor EC50
[11] = 0.5 h, read-out: maximum % reversal @ time (min), rat, 30 mg/kg p.o., 0.5% HPMC, @ 30 min

T2 sequence (P33533 whole entry): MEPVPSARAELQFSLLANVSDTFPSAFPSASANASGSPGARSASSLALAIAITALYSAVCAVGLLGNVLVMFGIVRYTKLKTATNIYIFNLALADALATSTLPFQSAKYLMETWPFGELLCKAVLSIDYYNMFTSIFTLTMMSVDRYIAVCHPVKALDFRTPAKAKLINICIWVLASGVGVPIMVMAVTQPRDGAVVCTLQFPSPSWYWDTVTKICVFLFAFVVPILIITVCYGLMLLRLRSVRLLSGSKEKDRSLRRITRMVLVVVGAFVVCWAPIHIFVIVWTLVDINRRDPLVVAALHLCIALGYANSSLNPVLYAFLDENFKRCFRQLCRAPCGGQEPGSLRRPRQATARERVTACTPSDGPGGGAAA
hMOR (mu opioid receptor), sequence (P35372 whole entry, looked up): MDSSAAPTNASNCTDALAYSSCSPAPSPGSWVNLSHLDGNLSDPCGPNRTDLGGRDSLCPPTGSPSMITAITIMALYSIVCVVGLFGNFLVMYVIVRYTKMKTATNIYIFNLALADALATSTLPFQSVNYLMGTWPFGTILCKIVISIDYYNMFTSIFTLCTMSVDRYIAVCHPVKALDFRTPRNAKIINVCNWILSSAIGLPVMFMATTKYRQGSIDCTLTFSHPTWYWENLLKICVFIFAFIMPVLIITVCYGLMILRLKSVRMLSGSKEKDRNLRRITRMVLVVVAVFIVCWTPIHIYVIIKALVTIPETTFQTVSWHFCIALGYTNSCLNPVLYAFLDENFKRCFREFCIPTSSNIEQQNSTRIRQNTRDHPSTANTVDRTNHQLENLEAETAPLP
T3 sequence (P33535 whole entry): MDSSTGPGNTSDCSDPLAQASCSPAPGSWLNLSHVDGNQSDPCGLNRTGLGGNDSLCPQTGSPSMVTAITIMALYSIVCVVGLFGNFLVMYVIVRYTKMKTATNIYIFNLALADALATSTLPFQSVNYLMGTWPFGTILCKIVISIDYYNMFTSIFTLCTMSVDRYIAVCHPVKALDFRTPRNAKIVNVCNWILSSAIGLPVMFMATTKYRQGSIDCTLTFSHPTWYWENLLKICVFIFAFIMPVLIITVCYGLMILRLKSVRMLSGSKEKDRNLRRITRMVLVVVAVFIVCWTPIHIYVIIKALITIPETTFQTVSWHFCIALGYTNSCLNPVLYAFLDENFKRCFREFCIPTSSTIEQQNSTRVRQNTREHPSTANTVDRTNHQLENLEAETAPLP
T1 sequence (P32300 whole entry): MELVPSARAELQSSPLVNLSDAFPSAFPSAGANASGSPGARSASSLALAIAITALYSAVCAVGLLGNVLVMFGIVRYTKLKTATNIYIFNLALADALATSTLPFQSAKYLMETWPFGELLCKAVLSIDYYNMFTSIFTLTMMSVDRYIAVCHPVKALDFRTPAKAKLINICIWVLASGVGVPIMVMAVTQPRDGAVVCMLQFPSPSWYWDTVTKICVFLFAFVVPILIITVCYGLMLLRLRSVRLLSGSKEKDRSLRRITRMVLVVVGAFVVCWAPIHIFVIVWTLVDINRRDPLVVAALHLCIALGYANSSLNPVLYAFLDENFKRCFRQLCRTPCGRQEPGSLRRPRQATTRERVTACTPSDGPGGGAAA

## COc1ccc(Oc2nc(-c3cccnc3)ncc2N2CCNCC2)cc1 [Cpd 327, 4-(4-Methoxy-phenoxy)-5-piperazin-1-yl-2-pyridin-3-yl-pyrimidine]
[1]
  GTPγS δ-RelEfficacy @200 nM: 0.471
  GTPγS δ-opioid receptor Rel Efficacy: 1.037
[1]; [7]
  EC50: 0.0527 µM
[2]
  inhibition at 10 µM: 4.26%
[3]; 1 h
  ED50: 14.3 mg/kg
[3]; [8]
  inhibition in vivo at 30 mg/kg: 102%

## COc1ccc(Oc2nc(-c3cncc(C#N)c3)ncc2NC[C@@H]2CCCN2)c(F)c1F [Cpd 101]
[4]
  Ki: 7 nM
[5]; μ-binding Ki
  Ki: 58 nM
[1]; [9]
  EC50: 0.103 µM
[2]; [10]
  EC50: > 10000 nM
[2]
  inhibition at 10 µM: 16.6%

## COc1ccc(Oc2nc(-c3cncc(F)c3)ncc2NC[C@@H]2CCCN2)cc1 [Cpd 54]
[6]
  Ki: 0.188 nM
[4]
  Ki: 0.33 nM
[5]; read-out: μ-binding Ki
  Ki: 217 nM
[3]; 1 h, read-out: maximum % reversal @ time (min), rat, 100 mg/kg p.o., 0.5% HPMC, @ 60 min
  inhibition in vivo at 100 mg/kg: 17.8%
[3]; 3 h, read-out: maximum % reversal @ time (min), rat, 100 mg/kg p.o., 0.5% HPMC, @ 180 min
  inhibition in vivo at 100 mg/kg: 32.7%

## COc1ccc(Oc2nc(-c3cncc(OC)c3)ncc2NC[C@@H]2C[C@@H](F)CN2)cc1 [Cpd 235]
[1]
  GTPγS δ-RelEfficacy @200 nM: 0.962
  GTPγS δ-opioid receptor Rel Efficacy: 0.953
[1]; [7]
  EC50: 0.00733 µM
[3]; [8]
  inhibition in vivo at 30 mg/kg: 43.7%

## COc1ccc(Oc2nc(-c3cncc(C)c3)ncc2NC[C@@H]2CCCN2)cc1 [Cpd 253]
[1]; [7]
  EC50: 0.0168 µM
[1]
  GTPγS δ-opioid receptor Rel Efficacy: 0.997
[3]; [8]
  inhibition in vivo at 30 mg/kg: 75.9%

## COc1ccc(Oc2nc(-c3cncc(SC)c3)ncc2NC[C@@H]2C[C@@H](F)CN2)cc1 [Cpd 234]
[1]
  GTPγS δ-RelEfficacy @200 nM: 0.847
  GTPγS δ-opioid receptor Rel Efficacy: 0.987
[1]; [7]
  EC50: 0.034 µM
[2]
  inhibition at 10 µM: 7.29%

## COc1ccc(Oc2nc(-c3cncc(SC)c3)ncc2N2CCCNCC2)cc1 [Cpd 347]
[1]; [7]
  EC50: 0.069 µM
[1]
  GTPγS δ-opioid receptor Rel Efficacy: 0.898
[2]
  inhibition at 10 µM: -0.404%

## COc1ccc(Oc2nc(-c3cccnc3)ncc2N2CCNC(C)(C)C2)cc1 [Cpd 355]
[1]; [9]
  EC50: 0.022 µM
[1]
  GTPγS δ-opioid receptor Rel Efficacy: 1.002
[2]; CHO-hMOR cell membranes
  GTPγS μ-opioid receptor % Inh @10 μM: 0.000%
[2]; [10]
  EC50: 243 nM

## COc1ccc(Oc2nc(-c3cccnc3)ncc2N2CCNC[C@@H]2C)cc1 [Cpd 354]
[1]; [7]
  EC50: 0.026 µM
[1]
  GTPγS δ-opioid receptor Rel Efficacy: 1.050
[3]; [8]
  inhibition in vivo at 30 mg/kg: 24.7%

## COc1ccc(Oc2nc(-c3cccnc3)ncc2N[C@H]2CCNC2)cc1 [Cpd 237]
[2]; CHO-hMOR cell membranes
  GTPγS μ-opioid receptor % Inh @10 μM: 3.524%

## COc1ccc(Oc2nc(-c3cncc(OC)c3)ncc2N2CC[C@@H](N)C2)cc1 [Cpd 349]
[1]; [7]
  EC50: 0.082 µM
[1]
  GTPγS δ-opioid receptor Rel Efficacy: 0.929
[2]
  inhibition at 10 µM: 0%

## COc1ccc(Oc2nc(-c3cncc(SC)c3)ncc2N2CCNCC2)cc1 [Cpd 341]
[1]; [7]
  EC50: 0.041 µM
[1]
  GTPγS δ-opioid receptor Rel Efficacy: 0.788
[2]
  inhibition at 10 µM: 0%

## COc1ccc(Oc2nc(-c3cncc(OC)c3)ncc2N[C@H]2CCNC2)cc1 [Cpd 256]
[1]; [7]
  EC50: 0.034 µM
[1]
  GTPγS δ-opioid receptor Rel Efficacy: 1.004
[2]
  inhibition at 10 µM: 6.2%

## COc1ccc(Oc2nc(-c3cncc(C#N)c3)ncc2N2CCNC(C)C2)cc1 (racemic) [Cpd 343]
[1]
  GTPγS δ-RelEfficacy @200 nM: 0.985
  GTPγS δ-opioid receptor Rel Efficacy: 1.105
[1]; [7]
  EC50: 0.001 µM
[2]
  EC50: 1980 nM
  inhibition at 10 µM: 7.29%

## COc1ccc(Oc2nc(-c3cncc(C#N)c3)ncc2N2CCNC[C@@H]2C)cc1 [Cpd 345]
[1]
  GTPγS δ-RelEfficacy @200 nM: 0.989
  GTPγS δ-opioid receptor Rel Efficacy: 1.089
[1]; [7]
  EC50: 0.001 µM
[2]
  EC50: 1930 nM
  inhibition at 10 µM: 0%

## COc1ccc(Oc2nc(-c3cccnc3)ncc2N2CCCNCC2)cc1 [Cpd 336]
[1]
  GTPγS δ-RelEfficacy @200 nM: 0.830
  GTPγS δ-opioid receptor Rel Efficacy: 1.009
[1]; [7]
  EC50: 0.0502 µM
[2]
  inhibition at 10 µM: 17.1%
[3]; [11]
  inhibition in vivo at 30 mg/kg: 23.4%

## CCOc1ccc(Oc2nc(-c3cncc(F)c3)ncc2NC[C@@H]2CCCN2)cc1 [Cpd 106]
[4]
  Ki: 6 nM
[5]; μ-binding Ki
  Ki: 42 nM
[1]; [7]
  EC50: 0.027 µM
[1]
  GTPγS δ-opioid receptor Rel Efficacy: 1.019
[2]
  EC50: > 10000 nM
  inhibition at 10 µM: 17%

## COc1ccc(Oc2nc(-c3cncc(SC)c3)ncc2N[C@H]2CCCNC2)cc1 [Cpd 252]
[1]; [7]
  EC50: 0.025 µM
[1]
  GTPγS δ-opioid receptor Rel Efficacy: 1.007
[2]
  inhibition at 10 µM: 2.48%

## COc1ccc(Oc2nc(-c3cccnc3)ncc2N[C@H]2CCCNC2)cc1 [Cpd 236]
[1]
  GTPγS δ-RelEfficacy @200 nM: 1.026
  GTPγS δ-opioid receptor Rel Efficacy: 1.042
[1]; [7]
  EC50: 0.017 µM
[2]
  inhibition at 10 µM: 6.2%

## COc1ccc(Oc2nc(-c3cncc(OC)c3)ncc2NC[C@@H]2CCCN2)cc1 [Cpd 68]
[4]
  Ki: 2 nM
[5]; μ-binding Ki
  Ki: 465 nM
[1]; [7]
  EC50: 0.031 µM
[1]
  GTPγS δ-opioid receptor Rel Efficacy: 0.912
[2]
  inhibition at 10 µM: 11.5%

## COc1ccc(Oc2nc(-c3cncc(C#N)c3)ncc2NC[C@@H]2C[C@@H](F)CN2)cc1 [Cpd 134]
[6]
  Ki: 0.0481 nM
[5]; μ-binding Ki
  Ki: 27 nM
[1]; [7]
  EC50: 0.004 µM
[1]
  GTPγS δ-opioid receptor Rel Efficacy: 1.087
[2]
  EC50: 2780 nM
  inhibition at 10 µM: 1%

## COc1ccc(Oc2nc(-c3cncc(OC)c3)ncc2N[C@H]2CCCNC2)cc1 [Cpd 245]
[1]; [7]
  EC50: 0.0127 µM
[1]
  GTPγS δ-opioid receptor Rel Efficacy: 1.095
[2]
  inhibition at 10 µM: 4.26%

## COc1ccc(Oc2nc(-c3cccnc3)ncc2N2CCN[C@H](C)C2)cc1 [Cpd 357, 4-(4-Methoxy-phenoxy)-5-[3-(R)-methyl-piperazin-1-yl]-2-pyridin-3-yl-pyrimidine]
[1]; [7]
  EC50: 0.005 µM
[1]
  GTPγS δ-opioid receptor Rel Efficacy: 0.929
[2]
  EC50: 1830 nM
  inhibition at 10 µM: 11.5%

## COc1ccc(Oc2nc(-c3cncc(SC)c3)ncc2N[C@H]2CCNC2)cc1 [Cpd 255]
[1]; [7]
  EC50: 0.0464 µM
[1]
  GTPγS δ-opioid receptor Rel Efficacy: 0.997
[2]
  inhibition at 10 µM: 17.1%

## COc1ccc(Oc2nc(-c3cncc(C#N)c3)ncc2NC[C@@H]2CCCN2)cc1F [Cpd 132]
[6]
  Ki: 0.4 nM
[5]; μ-binding Ki
  Ki: 61 nM
[1]; [7]
  EC50: 0.015 µM
[1]
  GTPγS δ-opioid receptor Rel Efficacy: 1.042
[2]
  EC50: 9280 nM
  inhibition at 10 µM: 9.4%

## COc1ccc(Oc2nc(-c3cncc(C)c3)ncc2NC[C@@H]2C[C@@H](F)CN2)cc1 [Cpd 238]
[1]; [7]
  EC50: 0.008 µM
[1]
  GTPγS δ-opioid receptor Rel Efficacy: 0.966
[3]; [8]
  inhibition in vivo at 30 mg/kg: 39.5%

## COc1ccc(Oc2nc(-c3cncc(C)c3)ncc2N2CCNCC2)cc1 [Cpd 351]
[1]; [7]
  EC50: 0.0249 µM and 0.034 µM
[1]
  GTPγS δ-opioid receptor Rel Efficacy: 1.036 and 1.056
[3]; [11]
  inhibition in vivo at 30 mg/kg: 9.8%

## COc1ccc(Oc2nc(-c3cncc(OC)c3)ncc2N2CCCNCC2)cc1 [Cpd 346]
[1]; [7]
  EC50: 0.047 µM
[1]
  GTPγS δ-opioid receptor Rel Efficacy: 1.031
[3]; [11]
  inhibition in vivo at 30 mg/kg: 37%

## COc1ccc(Oc2nc(-c3cncc(SC)c3)ncc2NC[C@@H]2CCCN2)cc1 [Cpd 107, [4-(4-Methoxy-phenoxy)-2-(5-methylsulfanyl-pyridin-3-yl)-pyrimidin-5-yl]-pyrrolidin-2-(S)-ylmethyl-amine]
[4]
  Ki: 1 nM
[5]; μ-binding Ki
  Ki: 39 nM
[1]
  GTPγS δ-RelEfficacy @200 nM: 1.046
  GTPγS δ-opioid receptor Rel Efficacy: 0.957
[1]; [7]
  EC50: 0.0213 µM
[2]
  EC50: 5100 nM
  inhibition at 10 µM: 4.05%
[3]; 2 h
  ED50: 32 mg/kg
[3]; 2 h, read-out: maximum % reversal @ time (min), rat, 100 mg/kg p.o., 0.5% HPMC, @ 120 min
  inhibition in vivo at 100 mg/kg: 52.8%
